# Results from paper PMC9681820, “A PDE10A inhibitor CPL500036 is a novel agent modulating striatal function devoid of most neuroleptic side-effects” (Frontiers in Pharmacology, 2022).
# Key:
# pKa (Figure 1) = type: physicochemical; conditions: printed in the picture of Figure 1, no method given
# [1] = target: T1, muscarinic acetylcholine receptor type 2 (Homo sapiens, UniProt P08172); experiment: SafetyScreen44 radioligand binding (antagonistic radioligand assay); conditions: read-out: % Inh (% inhibition of control specific binding)
# T1 construct: purchased Eurofins Cerep (SafetyScreen44)
# T1 sequence (P08172 whole entry): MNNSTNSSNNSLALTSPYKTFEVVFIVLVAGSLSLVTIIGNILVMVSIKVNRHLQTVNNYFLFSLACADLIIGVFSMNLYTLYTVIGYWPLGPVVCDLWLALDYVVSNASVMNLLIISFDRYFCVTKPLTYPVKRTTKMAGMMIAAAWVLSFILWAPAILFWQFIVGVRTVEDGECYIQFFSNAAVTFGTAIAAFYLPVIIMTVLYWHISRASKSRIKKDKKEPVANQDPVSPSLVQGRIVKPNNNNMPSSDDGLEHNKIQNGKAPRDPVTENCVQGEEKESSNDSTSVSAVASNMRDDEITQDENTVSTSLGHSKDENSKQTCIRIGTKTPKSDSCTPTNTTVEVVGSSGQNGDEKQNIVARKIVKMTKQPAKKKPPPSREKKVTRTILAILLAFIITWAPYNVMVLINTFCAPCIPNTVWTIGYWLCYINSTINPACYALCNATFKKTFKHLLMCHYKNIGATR
# Method: (§1) The SafetyScreen44® assay was carried out by Eurofins (Poitiers, France) according to the service-provider’s protocol. CPL500036 (1 µM) was tested against a panel of […] potential off-targets proteins, including G protein-coupled receptors (GPCRs), transporters, ion channels, nuclear receptors kinases and other non-kinase enzymes, by use of a set of the binding assays.
# (§2) Binding of CPL500036 was calculated as the percent binding inhibition of a radioactively labeled ligand specific for each target. Enzyme inhibition of CPL500036 was calculated as the percent inhibition of the activity of the control enzyme. “No interaction” was denoted if inhibition ≤ 25% of specific binding of the control. Determination of muscarinic acetylcholine receptor (M2) activity induced by CPL500036 (antagonism and agonism) was undertaken in human recombinant CHO cells by measurement of the intracellular cAMP level according to the service-provider’s protocol. IC50 (concentration causing a half-maximal inhibition of specific binding of the control) or EC50 (concentration causing a half-maximal response of specific binding of the control) and the Hill coefficient were determined by non-linear regression analysis of the competition curves generated with mean replicate values using Hill-equation curve fitting with software developed at Cerep (Celle-Lévescault, France).
# psychosis animal models = tested on: psychosis animal models; design: method as in manuscript in preparation; conditions: ref manuscript in preparation; cited from earlier work
# [2] = target: T2, M2 muscarinic (human) receptor (Homo sapiens, UniProt P08172); experiment: M2 functional assay, intracellular cAMP (HTRF) in CHO cells, agonist and antagonist mode; type: cell-based
# T2 construct: host or cells: CHO-K1
# T2 sequence (P08172 whole entry): as above
# Method: as §2
# Supplementary fig. 1 Assesment of possible allosteric modulation in M2 muscarinic (human) receptor […]
# by CPL500036 in CHO cells.
# The study was perfomed by Eurofins Cerep (Poitiers, France) according to the service-provider’s protocol. […] Cells were treated for 10 min with CPL500036. cAMP was detected by use of HTRF ( Homogeneous Time Resolved […]
# [3] = target: T3, muscarinic acetylcholine receptor type 3 (Homo sapiens, UniProt P20309); experiment: SafetyScreen44 radioligand binding; conditions: read-out: % Inh (% inhibition of control specific binding)
# T3 construct: purchased Eurofins Cerep (SafetyScreen44)
# Method: as §1, §2
# serotonin receptor 2B = target: T4, serotonin receptor 2B (Homo sapiens, UniProt P41595); experiment: SafetyScreen44 radioligand binding; conditions: agonist radioligand, read-out: % Inh (% inhibition of control specific binding)
# T4 construct: purchased Eurofins Cerep (SafetyScreen44)
# Method: as §1, §2
# [4] = target: T5, potassium voltage-gated channel subfamily H member 2 (hERG) (Homo sapiens, UniProt Q12809); experiment: SafetyScreen44 radioligand binding; conditions: read-out: % Inh (% inhibition of control specific binding)
# T5 construct: purchased Eurofins Cerep (SafetyScreen44)
# T5 sequence (Q12809 whole entry): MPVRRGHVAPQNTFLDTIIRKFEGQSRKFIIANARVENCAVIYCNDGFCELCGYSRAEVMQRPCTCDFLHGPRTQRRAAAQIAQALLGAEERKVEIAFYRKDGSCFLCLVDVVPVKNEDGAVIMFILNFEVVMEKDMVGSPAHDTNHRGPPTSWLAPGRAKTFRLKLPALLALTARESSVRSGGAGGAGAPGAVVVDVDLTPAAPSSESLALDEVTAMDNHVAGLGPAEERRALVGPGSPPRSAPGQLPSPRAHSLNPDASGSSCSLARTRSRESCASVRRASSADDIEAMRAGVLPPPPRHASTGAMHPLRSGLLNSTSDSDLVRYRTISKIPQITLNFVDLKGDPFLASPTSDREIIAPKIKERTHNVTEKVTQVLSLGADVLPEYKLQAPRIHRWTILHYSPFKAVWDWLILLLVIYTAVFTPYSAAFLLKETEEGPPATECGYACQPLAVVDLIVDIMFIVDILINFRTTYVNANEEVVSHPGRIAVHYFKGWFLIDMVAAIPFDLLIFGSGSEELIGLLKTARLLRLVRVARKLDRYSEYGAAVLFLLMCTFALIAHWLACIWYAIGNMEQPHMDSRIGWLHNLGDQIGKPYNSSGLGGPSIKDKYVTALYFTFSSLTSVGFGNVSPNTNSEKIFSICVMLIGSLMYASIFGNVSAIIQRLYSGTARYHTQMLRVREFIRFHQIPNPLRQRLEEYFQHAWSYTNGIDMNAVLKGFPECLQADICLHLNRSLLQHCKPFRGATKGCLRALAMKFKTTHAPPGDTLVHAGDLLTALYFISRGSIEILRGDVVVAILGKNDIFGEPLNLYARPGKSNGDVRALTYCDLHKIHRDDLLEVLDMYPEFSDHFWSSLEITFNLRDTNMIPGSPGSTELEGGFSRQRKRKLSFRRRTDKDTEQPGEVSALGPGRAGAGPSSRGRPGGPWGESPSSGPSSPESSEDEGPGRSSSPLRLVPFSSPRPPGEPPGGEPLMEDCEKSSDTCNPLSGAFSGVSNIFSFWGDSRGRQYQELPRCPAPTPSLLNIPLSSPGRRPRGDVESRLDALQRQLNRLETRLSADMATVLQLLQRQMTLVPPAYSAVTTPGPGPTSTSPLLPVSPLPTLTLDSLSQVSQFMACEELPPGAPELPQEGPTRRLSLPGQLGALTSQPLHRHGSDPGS
# Method: as §1, §2
# vasopressin receptor = target: T6, vasopressin receptor (Homo sapiens, UniProt P37288); experiment: SafetyScreen44 radioligand binding; conditions: agonist radioligand, read-out: % Inh (% inhibition of control specific binding)
# T6 construct: purchased Eurofins Cerep (SafetyScreen44)
# Method: as §1, §2
# κ-type opioid receptor = target: T7, κ-type opioid receptor (Rattus norvegicus, UniProt P34975); experiment: SafetyScreen44 radioligand binding; conditions: agonist radioligand, read-out: % Inh (% inhibition of control specific binding)
# T7 construct: purchased Eurofins Cerep (SafetyScreen44)
# T7 sequence (P34975 whole entry): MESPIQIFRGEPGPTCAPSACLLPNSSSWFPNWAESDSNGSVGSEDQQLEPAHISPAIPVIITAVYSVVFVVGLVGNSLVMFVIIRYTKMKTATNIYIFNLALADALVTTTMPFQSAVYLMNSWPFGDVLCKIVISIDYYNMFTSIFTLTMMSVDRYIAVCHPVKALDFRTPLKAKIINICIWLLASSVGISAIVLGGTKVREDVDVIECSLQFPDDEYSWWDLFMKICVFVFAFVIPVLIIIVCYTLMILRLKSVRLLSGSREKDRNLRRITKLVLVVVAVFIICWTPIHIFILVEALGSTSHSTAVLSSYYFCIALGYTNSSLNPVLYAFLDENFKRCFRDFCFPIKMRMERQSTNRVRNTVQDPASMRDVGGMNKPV
# Method: as §1, §2
# [5] = target: T8, histamine receptor type 1 (Homo sapiens, UniProt P35367); experiment: SafetyScreen44 radioligand binding; conditions: read-out: % Inh (% inhibition of control specific binding)
# T8 construct: purchased Eurofins Cerep (SafetyScreen44)
# T8 sequence (P35367 whole entry): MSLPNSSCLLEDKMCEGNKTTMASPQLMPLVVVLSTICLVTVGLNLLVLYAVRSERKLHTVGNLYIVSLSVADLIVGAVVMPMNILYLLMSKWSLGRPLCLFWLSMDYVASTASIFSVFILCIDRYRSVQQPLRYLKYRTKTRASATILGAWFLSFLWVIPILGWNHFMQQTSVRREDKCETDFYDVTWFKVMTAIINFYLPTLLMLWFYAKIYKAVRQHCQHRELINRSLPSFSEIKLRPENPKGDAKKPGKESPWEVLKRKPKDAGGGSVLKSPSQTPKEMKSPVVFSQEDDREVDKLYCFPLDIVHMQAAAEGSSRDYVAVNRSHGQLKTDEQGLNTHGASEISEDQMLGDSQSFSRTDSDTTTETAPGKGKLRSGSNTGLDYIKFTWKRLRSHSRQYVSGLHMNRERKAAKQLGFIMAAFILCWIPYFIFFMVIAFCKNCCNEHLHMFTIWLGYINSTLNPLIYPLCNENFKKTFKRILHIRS
# Method: as §1, §2
# [6] = target: T9, muscarinic acetylcholine receptor type 1 (Homo sapiens, UniProt P11229); experiment: SafetyScreen44 radioligand binding; conditions: read-out: % Inh (% inhibition of control specific binding)
# T9 construct: purchased Eurofins Cerep (SafetyScreen44)
# T9 sequence (P11229 whole entry): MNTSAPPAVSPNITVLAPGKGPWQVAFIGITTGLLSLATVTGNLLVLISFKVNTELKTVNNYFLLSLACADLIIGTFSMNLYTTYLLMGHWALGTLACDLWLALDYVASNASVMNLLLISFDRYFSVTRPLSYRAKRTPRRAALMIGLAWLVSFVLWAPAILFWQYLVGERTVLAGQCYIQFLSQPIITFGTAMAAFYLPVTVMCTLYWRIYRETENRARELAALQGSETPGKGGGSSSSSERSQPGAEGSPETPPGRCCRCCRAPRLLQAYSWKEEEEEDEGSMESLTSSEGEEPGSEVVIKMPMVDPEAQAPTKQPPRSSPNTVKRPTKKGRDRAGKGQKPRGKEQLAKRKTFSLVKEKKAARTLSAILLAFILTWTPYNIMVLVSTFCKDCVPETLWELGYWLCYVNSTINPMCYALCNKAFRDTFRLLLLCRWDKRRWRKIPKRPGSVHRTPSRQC
# Method: as §1, §2
# [7] = target: T10, cholecystokinin A receptor (Homo sapiens, UniProt P32238); experiment: SafetyScreen44 radioligand binding; conditions: agonist radioligand, read-out: % Inh (% inhibition of control specific binding)
# T10 construct: purchased Eurofins Cerep (SafetyScreen44)
# Method: as §1, §2
# [8] = target: T11, histamine receptor type 2 (Homo sapiens, UniProt P25021); experiment: SafetyScreen44 radioligand binding; conditions: read-out: % Inh (% inhibition of control specific binding)
# T11 construct: purchased Eurofins Cerep (SafetyScreen44)
# Method: as §1, §2
# serotonin receptor 3 = target: T12, serotonin receptor 3 (Homo sapiens, UniProt P46098); experiment: SafetyScreen44 radioligand binding; conditions: read-out: % Inh (% inhibition of control specific binding)
# T12 construct: purchased Eurofins Cerep (SafetyScreen44)
# Method: as §1, §2
# serotonin receptor 1B = target: T13, serotonin receptor 1B (Rattus norvegicus, UniProt P28564); experiment: SafetyScreen44 radioligand binding; conditions: read-out: % Inh (% inhibition of control specific binding)
# T13 construct: purchased Eurofins Cerep (SafetyScreen44)
# Method: as §1, §2
# dopamine transporter = target: T14, dopamine transporter (Homo sapiens, UniProt Q01959); experiment: SafetyScreen44 radioligand binding; conditions: read-out: % Inh (% inhibition of control specific binding)
# T14 construct: purchased Eurofins Cerep (SafetyScreen44)
# Method: as §1, §2
# 5-HT transporter = target: T15, 5-HT transporter (Homo sapiens, UniProt P31645); experiment: SafetyScreen44 radioligand binding; conditions: read-out: % Inh (% inhibition of control specific binding)
# T15 construct: purchased Eurofins Cerep (SafetyScreen44)
# Method: as §1, §2
# [9] = target: T16, alpha-1A adrenergic receptor (Homo sapiens, UniProt P35348); experiment: SafetyScreen44 radioligand binding; conditions: read-out: % Inh (% inhibition of control specific binding)
# T16 construct: purchased Eurofins Cerep (SafetyScreen44)
# T16 sequence (P35348 whole entry): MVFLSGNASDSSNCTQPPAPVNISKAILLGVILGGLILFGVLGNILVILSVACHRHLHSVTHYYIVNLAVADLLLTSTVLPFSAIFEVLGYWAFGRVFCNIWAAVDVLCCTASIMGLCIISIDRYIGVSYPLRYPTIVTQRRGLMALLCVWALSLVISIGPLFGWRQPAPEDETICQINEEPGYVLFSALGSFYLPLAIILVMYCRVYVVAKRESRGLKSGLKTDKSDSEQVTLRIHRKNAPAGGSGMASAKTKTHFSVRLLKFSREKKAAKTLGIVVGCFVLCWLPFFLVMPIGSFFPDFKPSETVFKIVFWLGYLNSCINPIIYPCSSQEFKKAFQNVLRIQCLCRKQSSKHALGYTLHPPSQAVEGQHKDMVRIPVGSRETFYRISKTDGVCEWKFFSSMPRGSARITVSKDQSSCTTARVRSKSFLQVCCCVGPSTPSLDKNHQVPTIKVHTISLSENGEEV
# Method: as §1, §2
# glucocorticoid receptor = target: T17, glucocorticoid receptor (Homo sapiens, UniProt P04150); experiment: SafetyScreen44 radioligand binding; conditions: agonist radioligand, read-out: % Inh (% inhibition of control specific binding)
# T17 construct: purchased Eurofins Cerep (SafetyScreen44)
# Method: as §1, §2
# dopamine receptor type 2 = target: T18, dopamine receptor type 2 (Homo sapiens, UniProt P14416); experiment: SafetyScreen44 radioligand binding; conditions: agonist radioligand, read-out: % Inh (% inhibition of control specific binding)
# T18 construct: purchased Eurofins Cerep (SafetyScreen44)
# Method: as §1, §2
# [10] = target: T19, beta-2 adrenergic receptor (Homo sapiens, UniProt P07550); experiment: SafetyScreen44 radioligand binding; conditions: agonist radioligand, read-out: % Inh (% inhibition of control specific binding)
# T19 construct: purchased Eurofins Cerep (SafetyScreen44)
# Method: as §1, §2
# [11] = target: T20, beta-1 adrenergic receptor (Homo sapiens, UniProt P08588); experiment: SafetyScreen44 radioligand binding; conditions: agonist radioligand, read-out: % Inh (% inhibition of control specific binding)
# T20 construct: purchased Eurofins Cerep (SafetyScreen44)
# Method: as §1, §2
# serotonin receptor 1A = target: T21, serotonin receptor 1A (Homo sapiens, UniProt P08908); experiment: SafetyScreen44 radioligand binding; conditions: agonist radioligand, read-out: % Inh (% inhibition of control specific binding)
# T21 construct: purchased Eurofins Cerep (SafetyScreen44)
# Method: as §1, §2
# serotonin receptor 2A = target: T22, serotonin receptor 2A (Homo sapiens, UniProt P28223); experiment: SafetyScreen44 radioligand binding; conditions: agonist radioligand, read-out: % Inh (% inhibition of control specific binding)
# T22 construct: purchased Eurofins Cerep (SafetyScreen44)
# Method: as §1, §2
# [12] = target: T23, norepinephrine transporter (Homo sapiens, UniProt P23975); experiment: SafetyScreen44 radioligand binding; conditions: read-out: % Inh (% inhibition of control specific binding)
# T23 construct: purchased Eurofins Cerep (SafetyScreen44)
# Method: as §1, §2
# Endothelin receptor = target: T24, Endothelin receptor (Homo sapiens, UniProt P25101); experiment: SafetyScreen44 radioligand binding; conditions: agonist radioligand, read-out: % Inh (% inhibition of control specific binding)
# T24 construct: purchased Eurofins Cerep (SafetyScreen44)
# T24 sequence (P25101 21-427): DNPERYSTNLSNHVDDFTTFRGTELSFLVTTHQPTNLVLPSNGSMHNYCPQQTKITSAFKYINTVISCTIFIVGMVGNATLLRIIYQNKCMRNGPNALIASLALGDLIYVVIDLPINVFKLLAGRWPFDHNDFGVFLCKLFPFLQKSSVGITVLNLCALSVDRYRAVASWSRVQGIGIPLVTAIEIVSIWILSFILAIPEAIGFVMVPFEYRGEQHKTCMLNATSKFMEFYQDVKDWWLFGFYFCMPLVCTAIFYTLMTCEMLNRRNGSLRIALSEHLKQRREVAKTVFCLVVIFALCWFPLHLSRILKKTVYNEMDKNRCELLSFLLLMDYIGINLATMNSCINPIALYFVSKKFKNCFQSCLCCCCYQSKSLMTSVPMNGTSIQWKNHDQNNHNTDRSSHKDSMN
# Method: as §1, §2
# adenosine A2A receptor = target: T25, adenosine A2A receptor (Homo sapiens, UniProt P29274); experiment: SafetyScreen44 radioligand binding; conditions: agonist radioligand, read-out: % Inh (% inhibition of control specific binding)
# T25 construct: purchased Eurofins Cerep (SafetyScreen44)
# T25 sequence (P29274 whole entry): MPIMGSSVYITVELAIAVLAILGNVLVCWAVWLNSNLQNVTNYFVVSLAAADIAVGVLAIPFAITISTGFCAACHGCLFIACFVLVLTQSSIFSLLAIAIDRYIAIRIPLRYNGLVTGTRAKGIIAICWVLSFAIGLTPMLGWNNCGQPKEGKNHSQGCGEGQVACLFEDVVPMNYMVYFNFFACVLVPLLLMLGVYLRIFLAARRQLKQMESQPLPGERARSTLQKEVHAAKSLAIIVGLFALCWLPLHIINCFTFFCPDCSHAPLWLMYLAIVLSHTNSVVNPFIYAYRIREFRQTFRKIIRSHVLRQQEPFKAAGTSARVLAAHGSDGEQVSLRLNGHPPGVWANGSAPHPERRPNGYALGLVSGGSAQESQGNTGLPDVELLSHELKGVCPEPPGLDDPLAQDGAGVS
# Method: as §1, §2
# dopamine receptor type 1 = target: T26, dopamine receptor type 1 (Homo sapiens, UniProt P21728); experiment: SafetyScreen44 radioligand binding; conditions: read-out: % Inh (% inhibition of control specific binding)
# T26 construct: purchased Eurofins Cerep (SafetyScreen44)
# T26 sequence (P21728 whole entry): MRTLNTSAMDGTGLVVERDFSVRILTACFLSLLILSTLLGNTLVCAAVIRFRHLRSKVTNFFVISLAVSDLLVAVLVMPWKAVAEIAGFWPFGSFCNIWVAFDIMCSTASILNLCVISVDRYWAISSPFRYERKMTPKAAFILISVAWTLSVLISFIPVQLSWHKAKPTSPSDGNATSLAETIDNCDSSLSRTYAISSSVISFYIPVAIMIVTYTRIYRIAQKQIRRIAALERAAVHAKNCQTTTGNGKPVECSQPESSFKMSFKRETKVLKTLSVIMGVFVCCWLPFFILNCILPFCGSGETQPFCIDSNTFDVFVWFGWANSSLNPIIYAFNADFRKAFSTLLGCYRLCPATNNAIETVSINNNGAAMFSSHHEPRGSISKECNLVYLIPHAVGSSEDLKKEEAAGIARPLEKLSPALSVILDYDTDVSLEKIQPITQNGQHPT
# Method: as §1, §2
# [13] = target: T27, alpha 4/beta 2 nicotinic acetylcholine receptor, (neuronal) (Homo sapiens, UniProt P17787+P43681); experiment: SafetyScreen44 radioligand binding; conditions: agonist radioligand, read-out: % Inh (% inhibition of control specific binding)
# T27 construct: purchased Eurofins Cerep (SafetyScreen44)
# Method: as §1, §2
# Monoamine oxidase A = target: T28, Monoamine oxidase A (Rattus norvegicus, UniProt P21396); experiment: SafetyScreen44 radioligand binding; conditions: read-out: % Inh (% inhibition of control specific binding)
# T28 construct: purchased Eurofins Cerep (SafetyScreen44)
# Method: as §1, §2
smiles,measurement,setting,value
"Cc1ncc(C)n2nc(-c3ccn4cc(-c5ccccc5)nc4n3)nc12 [CPL500036, 7-[5,8-Dimethyl-(1,2,4)triazolo (1,5-a)pyrazin-2-yl]-2-phenylimidazo (1,2-a) pyrimidine]",pKa,pKa (Figure 1),2.41
same,inhibition at 1 µM,[1],-91.2%
same,dose showing therapeutic activity,psychosis animal models,0.1 mg/kg
same,IC50,[2],9.2 µM
same,agonist-like behavior,"[2]; agonistic mode, in presence of methoctramine, CHO cells, cAMP",didn’t trigger any agonist-like behavior
same,inhibition at 1 µM,[3],0.7%
same,inhibition at 1 µM,serotonin receptor 2B,10.6%
same,inhibition at 1 µM,[4],-19.6%
same,inhibition at 1 µM,vasopressin receptor,-0.8%
same,inhibition at 1 µM,κ-type opioid receptor,7.7%
same,inhibition at 1 µM,[5],-14.6%
same,inhibition at 1 µM,[6],-19.7%
same,inhibition at 1 µM,[7],-8.2%
same,inhibition at 1 µM,[8],1.8%
same,inhibition at 1 µM,serotonin receptor 3,-5.7%
same,inhibition at 1 µM,serotonin receptor 1B,-7.3%
same,inhibition at 1 µM,dopamine transporter,-6.9%
same,inhibition at 1 µM,5-HT transporter,-9.5%
same,inhibition at 1 µM,[9],1.8%
same,inhibition at 1 µM,glucocorticoid receptor,-3.2%
same,inhibition at 1 µM,dopamine receptor type 2,-14.4%
same,inhibition at 1 µM,[10],8.2%
same,inhibition at 1 µM,[11],1.1%
same,inhibition at 1 µM,serotonin receptor 1A,5.4%
same,inhibition at 1 µM,serotonin receptor 2A,-8.6%
same,inhibition at 1 µM,[12],-14.5%
same,inhibition at 1 µM,Endothelin receptor,-16.8%
same,inhibition at 1 µM,adenosine A2A receptor,-8.1%
same,inhibition at 1 µM,dopamine receptor type 1,-8.2%
same,inhibition at 1 µM,[13],-6.1%
same,inhibition at 1 µM,Monoamine oxidase A,1%
